Assay results from PubChem BioAssay (NCI).
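Protocol summary: plate cells (96-well), add compound at 5 concentrations, incubate 48 h, interpolate endpoints linearly. GI50: concentration for 50% inhibition of growth. At the TGI there is no net growth.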

Assays:
Experiment in all cases: DTP human tumour cell line panel, 48 h
[1] = tested on: CCRF-CEM leukemia
[2] = tested on: DU-145 prostate
[3] = tested on: HOP-62 NSCLC
[4] = tested on: NCI-H23 lung
[5] = tested on: NCI-H460 lung
[6] = tested on: OVCAR-3 ovarian
[7] = tested on: SK-MEL-28 melanoma
[8] = tested on: SNB-19 CNS
[9] = tested on: SNB-75 CNS
[10] = tested on: SW-620 colon

NC1(C(=O)O)CSSC1
GI50 [1]: 13.2 µM
TGI [1]: > 100 µM
GI50 [2]: 7.63 µM
TGI [2]: > 100 µM
GI50 [3]: 2.92 µM
TGI [3]: 9.83 µM
GI50 [4]: 3.02 µM
TGI [4]: 14.8 µM
GI50 [5]: 3 µM
TGI [5]: > 100 µM
GI50 [6]: 4.75 µM
TGI [6]: 59.3 µM
GI50 [7]: 3.14 µM
TGI [7]: 10.7 µM
GI50 [8]: 3.59 µM
TGI [8]: 84 µM
GI50 [9]: 2.91 µM
TGI [9]: 21.5 µM
GI50 [10]: 10.4 µM
TGI [10]: > 100 µM

CN1CCN(CCCOc2ccc3ncnc(Nc4ccc(Oc5cccc(F)c5)c(Cl)c4)c3c2)CC1
GI50 [1]: 1.97 µM
TGI [1]: 8.21 µM
GI50 [2]: 1.31 µM
TGI [2]: 2.79 µM
GI50 [3]: 1.75 µM
TGI [3]: 3.76 µM
GI50 [4]: 1.48 µM
TGI [4]: 3.02 µM
GI50 [5]: 1.77 µM
TGI [5]: 3.3 µM
GI50 [6]: 1.61 µM
TGI [6]: 3.74 µM
GI50 [7]: 1.7 µM
TGI [7]: 3.11 µM
GI50 [8]: 1.64 µM
TGI [8]: 3.16 µM
GI50 [9]: 1.4 µM
TGI [9]: 2.75 µM
GI50 [10]: 1.68 µM
TGI [10]: 3.25 µM

CC(=O)Nc1ccc2c(c1)CN1C(=O)c3ccccc3C1=N2
GI50 [1]: > 100 µM
TGI [1]: > 100 µM
GI50 [2]: > 100 µM
TGI [2]: > 100 µM
GI50 [3]: > 100 µM
TGI [3]: > 100 µM
GI50 [4]: > 100 µM
TGI [4]: > 100 µM
GI50 [5]: > 100 µM
TGI [5]: > 100 µM
GI50 [6]: > 100 µM
TGI [6]: > 100 µM
GI50 [7]: > 100 µM
TGI [7]: > 100 µM
GI50 [8]: > 100 µM
TGI [8]: > 100 µM
GI50 [9]: > 100 µM
TGI [9]: > 100 µM
GI50 [10]: > 100 µM
TGI [10]: > 100 µM

CC(=O)OC1Oc2cc(C)c(C)cc2-c2oc(=O)c(-c3ccccc3)cc21 (centres undefined)
GI50 [1]: 0.364 µM
TGI [1]: > 100 µM
GI50 [2]: 0.297 µM
TGI [2]: 1.2 µM
GI50 [3]: 0.44 µM
TGI [3]: 21.9 µM
GI50 [4]: 0.615 µM
TGI [4]: > 100 µM
GI50 [5]: 0.338 µM
TGI [5]: 14.2 µM
GI50 [6]: 0.114 µM
TGI [6]: 0.355 µM
GI50 [7]: 0.464 µM
TGI [7]: 55.6 µM
GI50 [8]: 0.496 µM
TGI [8]: 28.7 µM
GI50 [9]: 0.21 µM
TGI [9]: 0.902 µM
GI50 [10]: 0.242 µM
TGI [10]: > 100 µM

CCOC(=O)/N=c1\ssc(Cl)c1Cl
GI50 [1]: 0.646 µM
TGI [1]: > 100 µM
GI50 [2]: 4.72 µM
TGI [2]: 19.4 µM
GI50 [3]: 43.7 µM
TGI [3]: > 100 µM
GI50 [4]: 3.25 µM
TGI [4]: 11.3 µM
GI50 [5]: 21.3 µM
TGI [5]: 54.3 µM
GI50 [6]: 6.53 µM
TGI [6]: 20.9 µM
GI50 [7]: 3.9 µM
TGI [7]: 27.1 µM
GI50 [8]: 23.7 µM
TGI [8]: 56.9 µM
GI50 [9]: 30.6 µM
TGI [9]: 87.7 µM
GI50 [10]: 0.599 µM
TGI [10]: 14.7 µM

NC(=O)c1c(NC(=O)c2cccc(C(F)(F)F)c2)sc2c1CCC(=O)C2
GI50 [1]: 0.163 µM
GI50 [2]: 3.73 µM
TGI [2]: > 100 µM
GI50 [3]: 3.06 µM
TGI [3]: > 91.5 µM
GI50 [4]: 0.317 µM
TGI [4]: 4.29 µM
GI50 [5]: 0.512 µM
TGI [5]: > 100 µM
GI50 [6]: 0.364 µM
TGI [6]: 1.34 µM
GI50 [7]: 1 µM
TGI [7]: 15.2 µM
GI50 [8]: 0.432 µM
TGI [8]: > 100 µM
GI50 [9]: 0.507 µM
TGI [9]: 3.84 µM
GI50 [10]: 0.234 µM
TGI [10]: 1.62 µM

Cc1ccc(NCCNCC(O)CO)c2c(=O)c3ccccc3sc12 (centres undefined)
GI50 [1]: 1.86 µM
TGI [1]: 4.55 µM
GI50 [2]: 1.28 µM
TGI [2]: 2.62 µM
GI50 [3]: 1.35 µM
TGI [3]: 2.95 µM
GI50 [4]: 1.73 µM
TGI [4]: 3.54 µM
GI50 [5]: 0.776 µM
TGI [5]: 2.43 µM
GI50 [6]: 2.15 µM
TGI [6]: 4.7 µM
GI50 [7]: 1.69 µM
TGI [7]: 3.3 µM
GI50 [8]: 1.52 µM
TGI [8]: 3.23 µM
GI50 [9]: 2.07 µM
TGI [9]: 11.5 µM
GI50 [10]: 1.04 µM
TGI [10]: 2.57 µM

O=C(Nc1cccc(Cl)c1)c1cc(Cl)ccc1O
GI50 [1]: 2.82 µM
TGI [1]: 22 µM
GI50 [2]: 1.66 µM
TGI [2]: > 54.1 µM
GI50 [3]: 1.33 µM
TGI [3]: 4.03 µM
GI50 [4]: 0.486 µM
TGI [4]: 3.55 µM
GI50 [5]: 0.488 µM
TGI [5]: 6.4 µM
GI50 [6]: 1.04 µM
TGI [6]: > 100 µM
GI50 [7]: 0.415 µM
TGI [7]: 3.77 µM
GI50 [8]: 0.481 µM
TGI [8]: 36.6 µM
GI50 [9]: 0.756 µM
TGI [9]: 3.86 µM
GI50 [10]: 1.36 µM
TGI [10]: 9.85 µM
